These molecules were tested against human JAK2 (Homo sapiens (Human), UniProt O60674) (assay: JAK2 TR-FRET kinase assay). Settings: JAK2 0.025 nM.
Assay type: biochemical

Sequence of human JAK2 (O60674 whole entry): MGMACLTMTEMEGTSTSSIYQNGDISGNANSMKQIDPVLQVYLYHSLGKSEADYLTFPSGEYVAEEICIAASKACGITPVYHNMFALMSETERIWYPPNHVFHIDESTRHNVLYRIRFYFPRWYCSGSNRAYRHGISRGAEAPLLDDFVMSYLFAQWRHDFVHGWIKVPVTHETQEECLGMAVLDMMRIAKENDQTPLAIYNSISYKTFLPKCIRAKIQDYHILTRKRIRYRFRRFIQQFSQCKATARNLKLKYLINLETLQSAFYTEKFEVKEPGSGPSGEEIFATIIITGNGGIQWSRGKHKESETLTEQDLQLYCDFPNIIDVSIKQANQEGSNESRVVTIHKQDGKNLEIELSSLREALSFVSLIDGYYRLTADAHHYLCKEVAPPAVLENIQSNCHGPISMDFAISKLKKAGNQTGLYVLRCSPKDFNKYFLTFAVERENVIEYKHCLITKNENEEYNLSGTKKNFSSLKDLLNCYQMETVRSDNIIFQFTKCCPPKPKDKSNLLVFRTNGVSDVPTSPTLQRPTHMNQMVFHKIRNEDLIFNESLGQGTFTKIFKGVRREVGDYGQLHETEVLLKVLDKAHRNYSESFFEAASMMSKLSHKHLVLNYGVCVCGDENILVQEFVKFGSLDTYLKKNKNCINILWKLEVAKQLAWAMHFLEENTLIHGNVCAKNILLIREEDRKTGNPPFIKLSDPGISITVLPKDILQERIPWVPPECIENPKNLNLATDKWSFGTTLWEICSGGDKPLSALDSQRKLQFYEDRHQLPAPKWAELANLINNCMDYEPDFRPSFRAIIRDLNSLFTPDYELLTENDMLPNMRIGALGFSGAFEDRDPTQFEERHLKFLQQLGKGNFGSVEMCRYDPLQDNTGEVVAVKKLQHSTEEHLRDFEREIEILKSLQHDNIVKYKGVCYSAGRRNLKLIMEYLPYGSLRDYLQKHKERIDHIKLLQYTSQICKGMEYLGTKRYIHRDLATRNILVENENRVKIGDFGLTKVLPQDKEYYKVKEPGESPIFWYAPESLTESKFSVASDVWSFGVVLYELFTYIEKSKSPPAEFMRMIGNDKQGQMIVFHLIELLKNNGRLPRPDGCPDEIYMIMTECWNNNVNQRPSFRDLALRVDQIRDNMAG

Row | IC50 [nM] | Compound
1 | 50 to 500 | CCC(=O)c1cnc(Nc2ccc([C@@H](C)N3CC[C@@H](O)C3)cn2)cc1Nc1cccc(-c2ncn(C)n2)c1OC [Compound 9OO]
2 | ≥ 500 | CCC(=O)c1cnc(Nc2ccc(C3(N)CC3)cn2)cc1Nc1cccc(-c2ncn(C)n2)c1OC [Compound 9O]
3 | ≥ 500 | CCC(=O)c1cnc(Nc2ccc([C@H](C)N3C[C@@H](O)[C@H](O)C3)cn2)cc1Nc1cccc(-c2ncn(C)n2)c1OC [Compound 9PP]
4 | ≥ 500 | CCC(=O)c1cnc(Nc2ccc(C3(NC)CC3)cn2)cc1Nc1cccc(-c2ncn(C)n2)c1OC [Compound 9P]
5 | ≥ 500 | CCC(=O)c1cnc(Nc2ccc([C@@H](C)N3C[C@@H](O)[C@H](O)C3)cn2)cc1Nc1cccc(-c2ncn(C)n2)c1OC [Compound 9QQ]
6 | ≥ 500 | CCC(=O)c1cnc(Nc2ccc(C3(N(C)C)CC3)cn2)cc1Nc1cccc(-c2ncn(C)n2)c1OC [Compound 9Q]
7 | ≥ 500 | CCC(=O)c1cnc(Nc2ccc(CN3CCCCC3)cn2)cc1Nc1cccc(-c2ncn(C)n2)c1OC [Compound 9RR]

Further lines, the molecule ahead of its results:

Row | Compound | IC50 [nM]
8 | CCC(=O)c1cnc(Nc2cc(C(C)N(C)C)ncn2)cc1Nc1cccc(-c2ncn(C)n2)c1OC (centres unmarked) [Compound 9QQQQ] | ≥ 500
9 | CCC(=O)c1cnc(Nc2cnc(CN)cn2)cc1Nc1cccc(-c2ncn(C)n2)c1OC [Compound 9QQQ] | ≥ 500
10 | CCC(=O)c1cnc(Nc2ccc(CN(C)C)c(C(F)(F)F)n2)cc1Nc1cccc(-c2ncn(C)n2)c1OC [Compound 9RRRR] | ≥ 500
11 | CCC(=O)c1cnc(Nc2cnc(CNC)cn2)cc1Nc1cccc(-c2ncn(C)n2)c1OC [Compound 9RRR] | ≥ 500

What follows are molecules tested against human JAK1 (Homo sapiens (Human), UniProt P23458) (assay: JAK1 TR-FRET kinase assay). Settings: TR-FRET, JAK1 2.5 nM.
Sequence of human JAK1 (P23458 whole entry): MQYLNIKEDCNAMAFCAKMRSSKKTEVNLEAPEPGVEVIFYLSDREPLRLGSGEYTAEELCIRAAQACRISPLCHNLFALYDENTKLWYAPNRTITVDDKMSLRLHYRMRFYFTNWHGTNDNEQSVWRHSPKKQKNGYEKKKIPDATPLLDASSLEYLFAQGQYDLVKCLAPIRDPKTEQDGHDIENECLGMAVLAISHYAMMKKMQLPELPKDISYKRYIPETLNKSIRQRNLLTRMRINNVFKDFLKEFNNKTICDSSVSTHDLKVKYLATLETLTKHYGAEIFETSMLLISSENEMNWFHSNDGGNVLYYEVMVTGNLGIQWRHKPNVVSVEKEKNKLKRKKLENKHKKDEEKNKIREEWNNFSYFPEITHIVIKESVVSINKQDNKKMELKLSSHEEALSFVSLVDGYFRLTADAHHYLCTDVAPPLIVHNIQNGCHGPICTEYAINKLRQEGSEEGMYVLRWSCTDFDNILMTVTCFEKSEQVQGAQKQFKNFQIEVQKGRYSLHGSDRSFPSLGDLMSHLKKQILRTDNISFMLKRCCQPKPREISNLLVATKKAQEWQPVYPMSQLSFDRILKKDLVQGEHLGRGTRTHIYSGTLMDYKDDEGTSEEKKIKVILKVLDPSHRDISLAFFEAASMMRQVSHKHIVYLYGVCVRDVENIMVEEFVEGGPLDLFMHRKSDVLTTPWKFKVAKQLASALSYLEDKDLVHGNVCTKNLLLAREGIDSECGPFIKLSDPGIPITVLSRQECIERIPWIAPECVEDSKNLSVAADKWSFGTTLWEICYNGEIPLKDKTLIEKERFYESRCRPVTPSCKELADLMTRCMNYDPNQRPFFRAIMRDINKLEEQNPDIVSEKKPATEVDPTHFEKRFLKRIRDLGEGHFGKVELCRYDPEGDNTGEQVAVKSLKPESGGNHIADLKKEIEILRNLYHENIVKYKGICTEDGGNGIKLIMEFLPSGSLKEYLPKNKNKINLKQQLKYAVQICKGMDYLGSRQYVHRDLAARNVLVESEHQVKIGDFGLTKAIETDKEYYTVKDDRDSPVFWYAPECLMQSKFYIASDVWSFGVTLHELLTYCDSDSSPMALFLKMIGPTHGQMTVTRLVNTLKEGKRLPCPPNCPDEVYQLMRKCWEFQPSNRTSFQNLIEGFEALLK
Assay type: biochemical

Row | IC50 [nM] | Compound
12 | ≥ 500 | CCC(=O)c1cnc(Nc2ccc([C@@H](C)N3CC[C@@H](O)C3)cn2)cc1Nc1cccc(-c2ncn(C)n2)c1OC [Compound 9OO]
13 | ≥ 500 | CCC(=O)c1cnc(Nc2ccc(C3(N)CC3)cn2)cc1Nc1cccc(-c2ncn(C)n2)c1OC [Compound 9O]
14 | ≥ 500 | CCC(=O)c1cnc(Nc2ccc([C@H](C)N3C[C@@H](O)[C@H](O)C3)cn2)cc1Nc1cccc(-c2ncn(C)n2)c1OC [Compound 9PP]
15 | ≥ 500 | CCC(=O)c1cnc(Nc2ccc(C3(NC)CC3)cn2)cc1Nc1cccc(-c2ncn(C)n2)c1OC [Compound 9P]
16 | ≥ 500 | CCC(=O)c1cnc(Nc2ccc([C@@H](C)N3C[C@@H](O)[C@H](O)C3)cn2)cc1Nc1cccc(-c2ncn(C)n2)c1OC [Compound 9QQ]
17 | ≥ 500 | CCC(=O)c1cnc(Nc2ccc(C3(N(C)C)CC3)cn2)cc1Nc1cccc(-c2ncn(C)n2)c1OC [Compound 9Q]
18 | ≥ 500 | CCC(=O)c1cnc(Nc2ccc(CN3CCCCC3)cn2)cc1Nc1cccc(-c2ncn(C)n2)c1OC [Compound 9RR]

Second part, the molecule before the results:

Row | Compound | IC50 [nM]
19 | CCC(=O)c1cnc(Nc2cc(C(C)N(C)C)ncn2)cc1Nc1cccc(-c2ncn(C)n2)c1OC (centres unmarked) [Compound 9QQQQ] | ≥ 500
20 | CCC(=O)c1cnc(Nc2cnc(CN)cn2)cc1Nc1cccc(-c2ncn(C)n2)c1OC [Compound 9QQQ] | ≥ 500
21 | CCC(=O)c1cnc(Nc2ccc(CN(C)C)c(C(F)(F)F)n2)cc1Nc1cccc(-c2ncn(C)n2)c1OC [Compound 9RRRR] | ≥ 500
22 | CCC(=O)c1cnc(Nc2cnc(CNC)cn2)cc1Nc1cccc(-c2ncn(C)n2)c1OC [Compound 9RRR] | ≥ 500

The molecules below were run against human JAK3 (Homo sapiens (Human), UniProt P52333) (assay: JAK3 TR-FRET kinase assay). Settings: JAK3 0.0125 nM.
Sequence of human JAK3 (P52333 whole entry): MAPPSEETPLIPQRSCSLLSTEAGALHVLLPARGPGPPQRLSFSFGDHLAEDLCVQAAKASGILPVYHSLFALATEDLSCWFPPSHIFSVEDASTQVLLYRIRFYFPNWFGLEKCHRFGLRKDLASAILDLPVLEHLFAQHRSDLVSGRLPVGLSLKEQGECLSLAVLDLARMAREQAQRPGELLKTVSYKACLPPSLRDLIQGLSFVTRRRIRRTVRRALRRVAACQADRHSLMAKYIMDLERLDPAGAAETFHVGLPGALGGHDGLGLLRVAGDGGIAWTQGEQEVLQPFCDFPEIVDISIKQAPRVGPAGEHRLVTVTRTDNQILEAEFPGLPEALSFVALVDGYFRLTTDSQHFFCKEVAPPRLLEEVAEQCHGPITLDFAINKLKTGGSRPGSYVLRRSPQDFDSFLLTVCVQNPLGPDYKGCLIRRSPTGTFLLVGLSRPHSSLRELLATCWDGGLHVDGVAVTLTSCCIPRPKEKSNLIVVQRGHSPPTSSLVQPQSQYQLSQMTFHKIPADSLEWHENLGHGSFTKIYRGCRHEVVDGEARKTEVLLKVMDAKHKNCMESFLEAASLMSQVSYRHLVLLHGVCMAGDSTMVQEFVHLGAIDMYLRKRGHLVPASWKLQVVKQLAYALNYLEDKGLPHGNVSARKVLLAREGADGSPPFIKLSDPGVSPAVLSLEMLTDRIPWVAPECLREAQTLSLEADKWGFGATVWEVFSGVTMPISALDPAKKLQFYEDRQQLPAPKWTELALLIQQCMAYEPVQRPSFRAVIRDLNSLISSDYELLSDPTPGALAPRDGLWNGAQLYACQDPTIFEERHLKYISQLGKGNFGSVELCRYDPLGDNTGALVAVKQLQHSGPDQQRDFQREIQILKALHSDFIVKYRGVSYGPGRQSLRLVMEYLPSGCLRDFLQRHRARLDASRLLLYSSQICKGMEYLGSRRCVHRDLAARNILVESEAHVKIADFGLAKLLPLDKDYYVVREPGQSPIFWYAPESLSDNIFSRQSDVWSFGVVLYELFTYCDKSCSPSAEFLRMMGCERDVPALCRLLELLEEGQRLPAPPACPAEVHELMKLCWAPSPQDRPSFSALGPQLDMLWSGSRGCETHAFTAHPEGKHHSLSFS
Assay type: biochemical

Row | IC50 [nM] | Compound
23 | 50 to 500 | CCC(=O)c1cnc(Nc2ccc([C@@H](C)N3CC[C@@H](O)C3)cn2)cc1Nc1cccc(-c2ncn(C)n2)c1OC [Compound 9OO]
24 | ≥ 500 | CCC(=O)c1cnc(Nc2ccc(C3(N)CC3)cn2)cc1Nc1cccc(-c2ncn(C)n2)c1OC [Compound 9O]
25 | 50 to 500 | CCC(=O)c1cnc(Nc2ccc([C@H](C)N3C[C@@H](O)[C@H](O)C3)cn2)cc1Nc1cccc(-c2ncn(C)n2)c1OC [Compound 9PP]
26 | ≥ 500 | CCC(=O)c1cnc(Nc2ccc(C3(NC)CC3)cn2)cc1Nc1cccc(-c2ncn(C)n2)c1OC [Compound 9P]
27 | 50 to 500 | CCC(=O)c1cnc(Nc2ccc([C@@H](C)N3C[C@@H](O)[C@H](O)C3)cn2)cc1Nc1cccc(-c2ncn(C)n2)c1OC [Compound 9QQ]
28 | ≥ 500 | CCC(=O)c1cnc(Nc2ccc(C3(N(C)C)CC3)cn2)cc1Nc1cccc(-c2ncn(C)n2)c1OC [Compound 9Q]
29 | ≥ 500 | CCC(=O)c1cnc(Nc2ccc(CN3CCCCC3)cn2)cc1Nc1cccc(-c2ncn(C)n2)c1OC [Compound 9RR]

More lines, now with the values behind:

Row | Compound | IC50 [nM]
30 | CCC(=O)c1cnc(Nc2cc(C(C)N(C)C)ncn2)cc1Nc1cccc(-c2ncn(C)n2)c1OC (centres unmarked) [Compound 9QQQQ] | ≥ 500
31 | CCC(=O)c1cnc(Nc2cnc(CN)cn2)cc1Nc1cccc(-c2ncn(C)n2)c1OC [Compound 9QQQ] | ≥ 500
32 | CCC(=O)c1cnc(Nc2ccc(CN(C)C)c(C(F)(F)F)n2)cc1Nc1cccc(-c2ncn(C)n2)c1OC [Compound 9RRRR] | ≥ 500
33 | CCC(=O)c1cnc(Nc2cnc(CNC)cn2)cc1Nc1cccc(-c2ncn(C)n2)c1OC [Compound 9RRR] | ≥ 500

Each molecule was assayed against TYK2 JH2 domain (Homo sapiens (Human), UniProt P29597) (assay: TYK2 JH2 NanoBRET assay). Settings: Table 20, read-out: TYK2 IC50.
Sequence of TYK2 JH2 domain (P29597 589-875): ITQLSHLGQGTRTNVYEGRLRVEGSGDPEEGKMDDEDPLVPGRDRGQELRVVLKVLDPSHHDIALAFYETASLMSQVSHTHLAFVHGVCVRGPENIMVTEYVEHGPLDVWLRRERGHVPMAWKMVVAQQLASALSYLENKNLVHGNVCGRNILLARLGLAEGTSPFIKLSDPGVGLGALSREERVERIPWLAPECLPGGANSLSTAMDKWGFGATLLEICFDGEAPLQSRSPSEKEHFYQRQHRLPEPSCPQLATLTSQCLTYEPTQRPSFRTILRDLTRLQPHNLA
Assay type: binding
How it was run: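 Tracer displacement measured by BRET ratio (acceptor over donor) in live HEK293T cells transfected with a NanoLuc-tagged TYK2 JH2 construct; cells co-exposed to test compound and 0.5 µM final K10 tracer for 2 h before substrate/extracellular inhibitor addition.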

Row | IC50 [nM] | Compound
34 | < 5 | CCC(=O)c1cnc(Nc2ccc([C@@H](C)N3CC[C@@H](O)C3)cn2)cc1Nc1cccc(-c2ncn(C)n2)c1OC [Compound 9OO]
35 | < 5 | CCC(=O)c1cnc(Nc2ccc(C3(N)CC3)cn2)cc1Nc1cccc(-c2ncn(C)n2)c1OC [Compound 9O]
36 | 5 to 50 | CCC(=O)c1cnc(Nc2ccc([C@H](C)N3C[C@@H](O)[C@H](O)C3)cn2)cc1Nc1cccc(-c2ncn(C)n2)c1OC [Compound 9PP]
37 | < 5 | CCC(=O)c1cnc(Nc2ccc(C3(NC)CC3)cn2)cc1Nc1cccc(-c2ncn(C)n2)c1OC [Compound 9P]
38 | 5 to 50 | CCC(=O)c1cnc(Nc2ccc([C@@H](C)N3C[C@@H](O)[C@H](O)C3)cn2)cc1Nc1cccc(-c2ncn(C)n2)c1OC [Compound 9QQ]
39 | < 5 | CCC(=O)c1cnc(Nc2ccc(C3(N(C)C)CC3)cn2)cc1Nc1cccc(-c2ncn(C)n2)c1OC [Compound 9Q]
40 | < 5 | CCC(=O)c1cnc(Nc2ccc(CN3CCCCC3)cn2)cc1Nc1cccc(-c2ncn(C)n2)c1OC [Compound 9RR]

The remaining lines, values behind:

Row | Compound | IC50 [nM]
41 | CCC(=O)c1cnc(Nc2cc(C(C)N(C)C)ncn2)cc1Nc1cccc(-c2ncn(C)n2)c1OC (centres unmarked) [Compound 9QQQQ] | < 5
42 | CCC(=O)c1cnc(Nc2cnc(CN)cn2)cc1Nc1cccc(-c2ncn(C)n2)c1OC [Compound 9QQQ] | < 5
43 | CCC(=O)c1cnc(Nc2ccc(CN(C)C)c(C(F)(F)F)n2)cc1Nc1cccc(-c2ncn(C)n2)c1OC [Compound 9RRRR] | 5 to 50
44 | CCC(=O)c1cnc(Nc2cnc(CNC)cn2)cc1Nc1cccc(-c2ncn(C)n2)c1OC [Compound 9RRR] | < 5

From US20230295119A1, “SUBSTITUTED PYRIDINES FOR THE TREATMENT OF INFLAMMATORY DISEASES” (GOSSAMER BIO SERVICES, INC., priority 2020, published 2023)
